According to patent publication US20240116986A1, “FUSION PEPTIDES CONTAINING DIMERIC ALPHA-HELICES, PEPTIDE-MOLECULARCONJUGATES CONTAINING THE SAME AND NUCLEIC ACID DELIVERY COMPOSITIONSCONTAINING THE SAME” (Artprobio Co., Ltd., priority 2022, published 2024):
Read-outs that look alike come from different tables or passages of the source.

Tests used:
ssDNA PolyT40 = experiment: EMSA with ssDNA PolyT40; type: binding
ssDNA PolyT200 = experiment: EMSA with ssDNA PolyT200; type: binding
Procedure: The peptide-molecule conjugates of Examples 16, 17 and 18 (Glc2-AA-U2, Glc2-AA-U4, Glc2-AA-U6) were dispersed in distilled water. […] After preparing the mixtures of the peptide-molecule conjugates of Examples 16, 17 and 18 (Glc2-AA-U2, Glc2-AA-U4, Glc2-AA-U6) and the ssDNA PolyT200 (5 μL) at the nucleobase ratios described above, they were analyzed by EMSA.
The aqueous solution of the peptide-molecule conjugate of Example 19 (Glc2-AA-U8) was sonicated for 5 minutes or heated at 90° C. for 5 minutes, respectively. The heated peptide-molecule conjugate was indicated by ‘heat’.
The mixtures prepared by mixing the peptide-molecule conjugate of Example 19 (Glc2-AA-U8) aqueous solution (sonicated or heated) and ssDNA PolyT200 (5 μL) at nucleobase ratios of 20, 30 or 40 were analyzed by EMSA.

EGFP mRNA = experiment: EMSA of nanostructure formation with EGFP mRNA; type: binding
Procedure: When a nanostructure was formed through self-assembly by reacting a peptide-molecule conjugate (SAB) with a nucleic acid material (dsDNA or mRNA), agarose gel EMSA was conducted to measure their interactions, binding ratio, stability, etc.
First, the nucleic acid material of a fixed concentration (100 fmol mRNA) was reacted with the peptide-molecule conjugate (SAB) of various concentrations. Immediately before mixing with the nucleic acid material, the peptide-molecule conjugate (SAB) was sonicated for 5 minutes to prevent self-aggregation. The sonicated peptide-molecule conjugate (SAB, 5 μL) was added to the nucleic acid material ([…]) and a nanostructure was prepared by adding distilled water. The sample was prepared by snap cooling. Specifically, after heating at 70° C. for 10 minutes and snap-cooling on ice, the prepared sample was stored at room temperature. The stored sample was mixed with 2 μL of 60% glycerol. Electrophoresis was performed at 100 V for 60 minutes on 0.8% agarose gel using 1×TBE. The band was observed after staining with SYBR™ Gold nucleic acid gel stain (Invitrogen, Waltham, USA).
After sonicating the peptide-molecule conjugate (SAB-gn, n=1 to 6) aqueous solution for 5 minutes, it was immediately mixed with an EGFP mRNA (200 μL) solution. […] An […] nanostructure was prepared as follows by mixing the peptide-molecule conjugate (SAB-gn, n=1 to 6) with the EGFP mRNA. […] The EGFP mRNA and the peptide-molecule conjugate (SAB-gn, n=1 to 6) were mixed at a charge ratio (+/−) of 0, 0.008, 0.016, 0.031, 0.063, 0.125, 0.25, 0.5, 1, 2, 4, 8, 16, 32 or 50.
After incubating the mixture solution overnight and centrifuging at 16,100 g for 30 minutes, the mixture was resuspended in deionized water. After washing twice, the resulting nanostructure was analyzed by EMSA.
After incubating the mixture solution overnight and centrifuging at 16,100 g for 30 minutes, the mixture was resuspended in deionized water.
After heating the mixed solution for 10 minutes at 70° C., it was immediately snap-cooled on ice. RiboRuler Low Range RNA Ladder and RiboRuler High Range RNA Ladder (Thermo Scientific, Waltham, USA) were used on the two lanes on the left side of agarose gel in order to identify the relative locations of the EGFP mRNA bands. The bands of the RiboRuler Low Range RNA Ladder correspond to 1000, 800, 600, 400, 300, 200 and 100 bases, from top to bottom, and the bands of the RiboRuler High Range RNA Ladder correspond to 6000, 4000, 3000, 2000, 1500, 1000, 500 and 200 bases, from top to bottom. Then, the mixtures with charge ratios (+/−) of 0, 0.031, 0.063, 0.125, 0.25, 0.5, 1, 2, 4, 8 and 16 were loaded in sequence.
After heating the mixed solution for 10 minutes at 70° C., it was immediately snap-cooled on ice. RiboRuler High Range RNA Ladder (Thermo Scientific, Waltham, USA) was used on the left side of agarose gel in order to identify the relative locations of the EGFP mRNA bands. The bands of the RiboRuler High Range RNA Ladder correspond to 6000, 4000, 3000, 2000, 1500, 1000, 500 and 200 bases, from top to bottom. Then, the samples were loaded with charge ratios (+/−) of 00, 0.063, 0.125, 0.25, 0.5, 1, 2, 4, 8, 16 and 32 in sequence.

[1] = different nucleobase ratios (20-100)
[2] = 20 nM EGFP mRNA, 70° C. 10 minutes, snap-cooled

Procedure for ssDNA PolyT100: The concentration of the ssDNA was fixed and the concentration of the peptide-molecule conjugate aqueous solution was varied based on the nucleobase ratio.
After incubating the mixture of the peptide-molecule conjugate and ssDNA overnight, it was analyzed by EMSA.

Substance: Ac-(PEG8)-AELAALEAELAALE(Ahx)2-E (adenine)E (adenine)-(Ahx)2-KLAALKAKLAALKAG-(PEG8) [PEG82-AA-U0]
- electrophoretic mobility (EMSA) (ssDNA PolyT40; nucleobase ratio 1280:1, compared with Example 12): delayed relatively more

Substance: Ac-(PEG8)-AELAALEAELAALE-(Ahx)2-E (adenine)-(Ahx)2-KLAALKAKLAALKAG-(PEG8) [PEG82-A-U0]
- electrophoretic mobility (EMSA) (ssDNA PolyT40; nucleobase ratio 640): delayed slightly

Substance: Ac-R-GS-UELUALEUELAULE-(Ahx)2-E (adenine)E (adenine)-(Ahx)2-KLUALKUKLAULKUG-K (glucose) [R-AA-Glc-U8]
- nanostructure formation (EMSA) (ssDNA PolyT200; nucleobase ratio 60): successfully form

Substance: Ac-R-GS-UELUALEUELAULE-(Ahx)2-E (thymine)E (thymine)-(Ahx)2-KLUALKUKLAULKUG-K (glucose) [R-TT-Glc-U8]
- nanostructure formation (EMSA) (ssDNA PolyT200; nucleobase ratio 60): successfully form

Substance: Ac-R-GS-UELUALEUELAULE-(Ahx)2-E (thymine)E (thymine)-(Ahx)2-KLUALKUKLAULKUG-K(PEG8)2 [R-TT-PEG82-U8]
- nanostructure formation (EMSA) (ssDNA PolyT200; [1]): successfully form

Substance: Ac-R-GS-UELUALEUELAULE-(Ahx)2-E (thymine)E (thymine)-(Ahx)2-KLUALKUKLAULKUG-K(PEG8) [R-AA-PEG8-U8]
- nanostructure formation (EMSA) (ssDNA PolyT200; [1]): successfully form

Substance: Ac-S-GS-UELUALEUELAULE-(Ahx)2-E (thymine)E (thymine)-(Ahx)2-KLUALKUKLAULKUG-K(PEG8) [S-TT-PEG8-U8]
- nanostructure formation (EMSA) (ssDNA PolyT200; [1]): successfully form

Substance: Glucose-(PEG8)-AELAALEAELAALE-(Ahx)2-K-(Ahx)2-KLAALKAKLAALKAG-(PEG8)-K(^Nglucose)-NH2 [SAB-g2]
- +/− (optimum charge ratio of EGFP mRNA and conjugate showing completely delayed electrophoretic mobility) (EGFP mRNA): >30

Substance: Glucose-(PEG8)-AELAALEAELAALE-(Ahx)2-K-(Ahx)2-KLAALKAKLAALKAG-(PEG8)-NH2 [SAB-g1]
- +/− (optimum charge ratio of EGFP mRNA and conjugate showing completely delayed electrophoretic mobility) (EGFP mRNA): 20

Substance: Glucose-GS-AELAALEAELAALE-(Ahx)2-E (adenine)-E (adenine)-(Ahx)2-KLAALKAKLAALKAG-GS [Glc1-AA-U0]
- electrophoretic mobility (EMSA) (ssDNA PolyT100; nucleobase ratio 40:1, compared with Example 15): delayed relatively more
- electrophoretic mobility (EMSA) (ssDNA PolyT100; nucleobase ratio 80:1): delayed completely

Substance: Glucose-GS-AELAALEAELAALE-(Ahx)2-E (thymine)-E (thymine)-(Ahx)2-KLAALKAKLAALKAG-GS [Glc1-TT-U0]
- electrophoretic mobility (EMSA) (ssDNA PolyT100; nucleobase ratio 80:1): no electrophoretic mobility was observed

Substance: Glucose-GS-AELAALEAELAALE-(Ahx)2-K-(Ahx)2-KLAALKAKLAALKAG-K(^Nglucose)-NH2 [SAB-g3]
- +/− (optimum charge ratio of EGFP mRNA and conjugate showing completely delayed electrophoretic mobility) (EGFP mRNA): 0.25
- Hill coefficient (EGFP mRNA): 4.6
- half-saturation constant KSAB-g3 (EGFP mRNA): 0.152

Substance: Glucose-GS-AELAALEUELAALE-(Ahx)2-E (adenine)E (adenine)-(Ahx)2-KLAALKUKLAALKAG-K (glucose) [Glc2-AA-U2]
- nanostructure formation (EMSA) (ssDNA PolyT200; [1]): formed successfully

Substance: Glucose-GS-AELAALEUELAALE-(Ahx)2-K-(Ahx)2-KLAALKUKLAALKAG-K(^Nglucose)-NH2 [SAB-g4]
- +/− (optimum charge ratio of EGFP mRNA and conjugate showing completely delayed electrophoretic mobility) (EGFP mRNA): 5

Substance: Glucose-GS-AELUALEAELAULE-(Ahx)2-E (adenine)E (adenine)-(Ahx)2-KLUALKAKLAULKAG-K (glucose) [Glc2-AA-U4]
- nanostructure formation (EMSA) (ssDNA PolyT200; [1]): formed successfully

Substance: Glucose-GS-AELUALEAELAULE-(Ahx)2-K-(Ahx)2-KLUALKAKLAULKAG-K(^Nglucose)-NH2 [SAB-g5]
- +/− (optimum charge ratio of EGFP mRNA and conjugate showing completely delayed electrophoretic mobility) (EGFP mRNA): 10

Substance: Glucose-GS-AELUALEUELAULE-(Ahx)2-E (adenine)E (adenine)-(Ahx)2-KLUALKUKLAULKAG-K (glucose) [Glc2-AA-U6]
- nanostructure formation (EMSA) (ssDNA PolyT200; [1]): formed successfully

Substance: Glucose-GS-AELUALEUELAULE-(Ahx)2-K-(Ahx)2-KLUALKUKLAULKAG-K(^Nglucose)-NH2 [SAB-g6]
- +/− (optimum charge ratio of EGFP mRNA and conjugate showing completely delayed electrophoretic mobility) (EGFP mRNA): >4

Substance: Glucose-GS-UELUALEUELAULE-(Ahx)2-E (adenine)E (adenine)-(Ahx)2-KLUALKUKLAULKUG-K (glucose) [Glc2-AA-U8]
- nanostructure formation with EGFP mRNA (EMSA) (EGFP mRNA; four conjugates used together (AA 6%, CC 21%, GG 26%, TT 47%), nucleobase ratio 1:1-1:15): successfully forms the nanostructure
- nanostructure formation (EMSA) after sonication or heating of conjugate (ssDNA PolyT200; nucleobase ratios 20, 30 or 40, sonicated 5 minutes or heated at 90° C. 5 minutes): successfully binding to ssDNA PolyT200

Substance: Glucose-GS-UELUALEUELAULE-(Ahx)2-E (cytosine)E (cytosine)-(Ahx)2-KLUALKUKLAULKUG-K (glucose) [Glc2-CC-U8]
- nanostructure formation with EGFP mRNA (EMSA) (EGFP mRNA): successfully forms the nanostructure

Substance: Glucose-GS-UELUALEUELAULE-(Ahx)2-E (guanine)E (guanine)-(Ahx)2-KLUALKUKLAULKUG-K (glucose) [Glc2-GG-U8]
- nanostructure formation with EGFP mRNA (EMSA) (EGFP mRNA): successfully forms the nanostructure

Substance: Glucose-GS-UELUALEUELAULE-(Ahx)2-E (thymine)E (thymine)-(Ahx)2-KLUALKUKLAULKUG-K (glucose) [Glc2-TT-U8]
- nanostructure formation with EGFP mRNA (EMSA) (EGFP mRNA): successfully forms the nanostructure

Substance: Glucose-SGSG-C-GG-AUAUAUAUAUA-GG-R-GG-AUAUAUAUAUA-GG-C (cyclic; disulfide) [SAB #31]
- EMSA bands of EGFP mRNA (EGFP mRNA): bands of the EGFP mRNA weaken gradually with the increase of charge ratio

Substance: Glucose-SGSG-C-GG-AUAUAUAUAUA-GG-R-GG-AUAUAUAUAUA-GG-C (linear) [#30]
- charge ratio (+/−) at which a complete nanostructure was formed (EGFP mRNA): ≥ 8

Substance: Glycolic acid-SGSG-C-GG-AUAUAUAUAUA-GG-R-GG-AUAUAUAUAUA-GG-C (cyclic; disulfide) [cyc-R(AU)A5-Ga]
- charge ratio (+/−) at which a complete nanostructure was formed (EGFP mRNA; [2]): 16

Substance: Glycolic acid-SGSG-C-GG-AUAUAUAUAUA-GG-R-GG-AUAUAUAUAUA-GG-C (linear) [lin-R(AU)A5-Ga]
- charge ratio (+/−) at which a complete nanostructure was formed (EGFP mRNA; [2]): ≥ 1.0
